According to ChEMBL document CHEMBL1201862, “PubChem BioAssay data set” (2004):
Each block holds one compound with its values, some of them ahead of it. The source made the active and inactive calls.

Key:
[1] = target: Intestinal-type alkaline phosphatase (Homo sapiens, UniProt P09923); assay: inhibition of human intestinal alkaline phosphatase – biochemical, luminescent, uHTS hits, set 2, dose response (AID 488793); assay type: functional
[2] = target: T1, Sentrin-specific protease 8 (Homo sapiens, UniProt Q96LD8); assay: inhibition of human SENP8 cleavage activity – biochemical, luminescence, SAR follow-up (AID 504501); assay type: functional
T1 sequence (Q96LD8 whole entry): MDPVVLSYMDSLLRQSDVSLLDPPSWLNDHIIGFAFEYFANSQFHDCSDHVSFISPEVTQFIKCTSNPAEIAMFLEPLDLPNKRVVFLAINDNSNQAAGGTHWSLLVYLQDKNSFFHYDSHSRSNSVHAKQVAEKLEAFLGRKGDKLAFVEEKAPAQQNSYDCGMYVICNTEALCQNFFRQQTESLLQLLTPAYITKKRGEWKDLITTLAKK

[3] = Trypanosoma cruzi growth suppression in host cells – NIH3T3 host cells, beta-gal luminescence, confirmation (AID 2044); assay type: functional, cell-based;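 note: intracellular parasites grown in NIH/3T3 mouse fibroblasts as host cells; luminescent beta-galactosidase reporter signal from transgenic T. cruzi replicating inside host cells; inhibitors lower the luminescence signal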
[4] = target: Heat shock 70 kDa protein 1A (Homo sapiens, UniProt P0DMV8); assay: inhibition of Hsp70 binding activity – biochemical, fluorescence polarization, SAR follow-up (AID 1072)
Chain of Heat shock 70 kDa protein 1A (P0DMV8 whole entry): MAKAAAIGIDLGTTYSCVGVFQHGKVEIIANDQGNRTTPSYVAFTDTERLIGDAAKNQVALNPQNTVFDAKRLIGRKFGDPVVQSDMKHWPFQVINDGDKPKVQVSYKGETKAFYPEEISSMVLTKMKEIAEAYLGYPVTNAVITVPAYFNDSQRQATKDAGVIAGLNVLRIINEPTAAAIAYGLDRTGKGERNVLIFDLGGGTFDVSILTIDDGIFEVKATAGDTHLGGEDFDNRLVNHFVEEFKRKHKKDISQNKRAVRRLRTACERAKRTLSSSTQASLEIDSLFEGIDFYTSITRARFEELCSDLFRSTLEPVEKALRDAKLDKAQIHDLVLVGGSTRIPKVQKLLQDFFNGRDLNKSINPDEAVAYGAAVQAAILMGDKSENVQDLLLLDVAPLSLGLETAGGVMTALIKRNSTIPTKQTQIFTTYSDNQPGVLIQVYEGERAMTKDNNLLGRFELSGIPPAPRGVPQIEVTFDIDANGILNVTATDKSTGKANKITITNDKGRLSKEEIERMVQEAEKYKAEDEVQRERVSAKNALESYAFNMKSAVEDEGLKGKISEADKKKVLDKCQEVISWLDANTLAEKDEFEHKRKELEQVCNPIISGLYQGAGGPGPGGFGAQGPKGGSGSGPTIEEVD

[5] = target: T2, Dual specificity protein phosphatase 6 (Rattus norvegicus, UniProt Q64346);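 note: in vitro confirmatory secondary MKP-3 assay designed to detect irreversible or slow-binding inhibitors; recombinant His-tagged rat MKP-3 acting on the substrate OMFP; inhibitor potency from reduced phosphatase rate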
T2 sequence (Q64346 whole entry): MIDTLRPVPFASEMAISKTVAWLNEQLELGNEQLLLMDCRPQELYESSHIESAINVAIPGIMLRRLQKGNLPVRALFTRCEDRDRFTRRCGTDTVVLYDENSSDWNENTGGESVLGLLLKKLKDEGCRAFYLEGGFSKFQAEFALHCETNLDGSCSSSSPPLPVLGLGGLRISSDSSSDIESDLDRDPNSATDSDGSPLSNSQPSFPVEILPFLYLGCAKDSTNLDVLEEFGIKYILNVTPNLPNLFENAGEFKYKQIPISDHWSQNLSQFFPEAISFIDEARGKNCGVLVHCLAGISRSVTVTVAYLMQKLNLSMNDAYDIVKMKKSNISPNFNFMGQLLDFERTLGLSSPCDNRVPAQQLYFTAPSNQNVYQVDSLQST

[6] = target: T3, RNA-binding protein pos-1 (Caenorhabditis elegans, UniProt G5EF15); assay: disruptors of C. elegans POS-1 RNA interaction – biochemical, fluorescence polarization, dose response (AID 1964);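 note: purified POS-1 fused to maltose binding protein made in E. coli; potency of compounds blocking POS-1 binding to fluorescent RNA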
T3 sequence (G5EF15 whole entry): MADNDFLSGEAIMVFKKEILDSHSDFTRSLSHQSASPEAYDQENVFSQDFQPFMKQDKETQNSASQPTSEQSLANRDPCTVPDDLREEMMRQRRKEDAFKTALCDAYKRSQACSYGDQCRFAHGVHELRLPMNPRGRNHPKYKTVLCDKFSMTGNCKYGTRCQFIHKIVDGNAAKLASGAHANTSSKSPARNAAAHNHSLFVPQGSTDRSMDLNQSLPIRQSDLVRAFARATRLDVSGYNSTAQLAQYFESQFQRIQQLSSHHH

ORF 73 = ORF 73 (Human herpesvirus 8, UniProt O40947); assay: KSHV LANA DNA-binding disruption – biochemical, fluorescence polarization, cherry-picked samples, dose response (AID 504725); set-up: species or system Human gammaherpesvirus 8;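 note: fluorescence polarization of a labeled DNA duplex reporting LANA DNA binding; potency is for inhibitors that block LANA binding to the DNA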
[7] = target: RAC-gamma serine/threonine-protein kinase (Homo sapiens, UniProt Q9Y243); assay type: functional
Chain of RAC-gamma serine/threonine-protein kinase (Q9Y243 whole entry, canonical isoform): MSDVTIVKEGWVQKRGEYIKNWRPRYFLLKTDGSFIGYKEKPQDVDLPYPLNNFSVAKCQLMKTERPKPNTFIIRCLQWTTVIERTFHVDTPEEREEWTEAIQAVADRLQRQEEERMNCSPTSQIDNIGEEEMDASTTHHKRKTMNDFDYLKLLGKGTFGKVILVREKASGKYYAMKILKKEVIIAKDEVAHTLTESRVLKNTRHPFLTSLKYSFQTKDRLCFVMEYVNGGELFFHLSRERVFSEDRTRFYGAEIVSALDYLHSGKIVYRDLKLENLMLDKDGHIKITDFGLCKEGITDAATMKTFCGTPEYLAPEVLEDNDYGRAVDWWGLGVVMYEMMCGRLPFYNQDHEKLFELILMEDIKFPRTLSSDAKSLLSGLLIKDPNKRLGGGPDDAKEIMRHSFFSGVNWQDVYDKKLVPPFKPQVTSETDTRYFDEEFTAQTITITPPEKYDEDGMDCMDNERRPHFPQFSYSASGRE

[8] = target: Casein kinase I isoform alpha (Homo sapiens, UniProt P48729); assay type: functional
[9] = target: Cyclin-dependent kinase 1 (Homo sapiens, UniProt P06493); assay type: functional;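 note: Kinome-wide panel profiling, with the target listed as panel member CDC2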
Chain of Cyclin-dependent kinase 1 (P06493 whole entry): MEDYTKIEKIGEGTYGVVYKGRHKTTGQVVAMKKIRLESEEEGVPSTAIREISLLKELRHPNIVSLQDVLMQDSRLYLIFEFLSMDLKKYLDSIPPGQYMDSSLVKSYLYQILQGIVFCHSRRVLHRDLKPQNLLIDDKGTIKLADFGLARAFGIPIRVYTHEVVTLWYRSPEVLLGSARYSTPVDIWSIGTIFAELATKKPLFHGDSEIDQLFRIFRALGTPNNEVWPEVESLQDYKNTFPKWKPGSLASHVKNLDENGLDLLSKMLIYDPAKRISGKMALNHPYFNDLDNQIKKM

[10] = target: Serine/threonine-protein kinase pim-1 (Homo sapiens, UniProt P11309); assay type: functional
[11] = target: Serine/threonine-protein kinase PAK 4 (Homo sapiens, UniProt O96013); assay type: functional;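 note: value obtained within a kinome profiling panel in which PAK4 was one of the panel members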
Chain of Serine/threonine-protein kinase PAK 4 (O96013 whole entry): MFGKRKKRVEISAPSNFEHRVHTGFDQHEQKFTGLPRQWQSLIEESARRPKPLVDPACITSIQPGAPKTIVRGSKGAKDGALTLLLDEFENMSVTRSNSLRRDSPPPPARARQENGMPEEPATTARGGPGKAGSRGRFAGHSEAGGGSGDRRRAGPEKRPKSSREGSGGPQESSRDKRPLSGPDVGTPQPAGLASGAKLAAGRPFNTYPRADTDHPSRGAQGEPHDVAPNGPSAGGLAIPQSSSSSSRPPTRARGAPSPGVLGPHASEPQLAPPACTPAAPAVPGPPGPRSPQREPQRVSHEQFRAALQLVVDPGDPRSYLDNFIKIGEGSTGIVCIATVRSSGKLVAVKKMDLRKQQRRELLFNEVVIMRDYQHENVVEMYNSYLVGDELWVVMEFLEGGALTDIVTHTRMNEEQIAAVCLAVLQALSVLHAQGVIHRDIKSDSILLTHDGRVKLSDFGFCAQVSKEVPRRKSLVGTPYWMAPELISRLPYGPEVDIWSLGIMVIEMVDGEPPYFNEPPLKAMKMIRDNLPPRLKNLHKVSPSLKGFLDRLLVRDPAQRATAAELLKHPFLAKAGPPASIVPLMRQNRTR

[12] = target: Serine/threonine-protein kinase D2 (Homo sapiens, UniProt Q9BZL6); assay type: functional;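 note: measured against PRKD2 as one member of a kinome-wide kinase profiling panel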
[13] = target: Calcium/calmodulin-dependent protein kinase type 1 (Homo sapiens, UniProt Q14012); assay type: functional
Chain of Calcium/calmodulin-dependent protein kinase type 1 (Q14012 whole entry): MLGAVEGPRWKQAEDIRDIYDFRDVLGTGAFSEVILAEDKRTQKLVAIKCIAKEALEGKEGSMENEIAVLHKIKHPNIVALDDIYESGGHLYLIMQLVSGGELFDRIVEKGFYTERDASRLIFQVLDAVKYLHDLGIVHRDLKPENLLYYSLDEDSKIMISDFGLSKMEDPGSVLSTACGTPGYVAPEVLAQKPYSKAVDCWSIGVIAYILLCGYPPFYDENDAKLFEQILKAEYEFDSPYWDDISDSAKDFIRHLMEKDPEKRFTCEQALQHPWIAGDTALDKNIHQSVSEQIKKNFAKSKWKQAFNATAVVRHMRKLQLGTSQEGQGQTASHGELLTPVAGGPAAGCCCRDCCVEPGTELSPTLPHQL

[14] = target: MAP/microtubule affinity-regulating kinase 3 (Homo sapiens, UniProt P27448); assay type: functional;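 note: MARK3 affinity measured as one member of a kinome panel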
Chain of MAP/microtubule affinity-regulating kinase 3 (P27448 whole entry): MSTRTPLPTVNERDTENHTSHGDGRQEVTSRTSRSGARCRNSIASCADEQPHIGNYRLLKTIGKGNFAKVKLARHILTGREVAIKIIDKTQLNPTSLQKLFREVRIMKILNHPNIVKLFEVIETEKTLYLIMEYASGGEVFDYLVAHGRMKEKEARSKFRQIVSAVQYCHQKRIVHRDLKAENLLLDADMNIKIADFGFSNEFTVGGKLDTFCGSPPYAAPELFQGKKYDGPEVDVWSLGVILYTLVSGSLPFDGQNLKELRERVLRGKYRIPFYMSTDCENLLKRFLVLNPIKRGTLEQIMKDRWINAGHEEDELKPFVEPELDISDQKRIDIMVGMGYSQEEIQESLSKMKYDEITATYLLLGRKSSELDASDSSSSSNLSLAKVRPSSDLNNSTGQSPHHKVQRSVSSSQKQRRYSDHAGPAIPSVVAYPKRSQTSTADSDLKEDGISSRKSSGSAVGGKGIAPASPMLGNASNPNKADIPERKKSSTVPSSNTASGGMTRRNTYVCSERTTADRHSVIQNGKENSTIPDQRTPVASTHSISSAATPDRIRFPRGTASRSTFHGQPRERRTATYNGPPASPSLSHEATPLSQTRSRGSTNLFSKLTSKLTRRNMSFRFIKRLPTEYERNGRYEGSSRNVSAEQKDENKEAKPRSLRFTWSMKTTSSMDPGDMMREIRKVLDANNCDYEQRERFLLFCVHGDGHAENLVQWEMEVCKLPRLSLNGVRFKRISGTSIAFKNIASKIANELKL

[15] = target: Dual specificity tyrosine-phosphorylation-regulated kinase 4 (Homo sapiens, UniProt Q9NR20); assay type: functional
[16] = target: Serine/threonine-protein kinase pim-3 (Homo sapiens, UniProt Q86V86); assay type: functional;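 note: value obtained as one member of a broad kinase panel profiling effort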
[17] = target: Vascular endothelial growth factor receptor 2 (Homo sapiens, UniProt P35968); assay type: functional
[18] = target: Eukaryotic elongation factor 2 kinase (Homo sapiens, UniProt O00418); assay type: functional
Chain of Eukaryotic elongation factor 2 kinase (O00418 whole entry): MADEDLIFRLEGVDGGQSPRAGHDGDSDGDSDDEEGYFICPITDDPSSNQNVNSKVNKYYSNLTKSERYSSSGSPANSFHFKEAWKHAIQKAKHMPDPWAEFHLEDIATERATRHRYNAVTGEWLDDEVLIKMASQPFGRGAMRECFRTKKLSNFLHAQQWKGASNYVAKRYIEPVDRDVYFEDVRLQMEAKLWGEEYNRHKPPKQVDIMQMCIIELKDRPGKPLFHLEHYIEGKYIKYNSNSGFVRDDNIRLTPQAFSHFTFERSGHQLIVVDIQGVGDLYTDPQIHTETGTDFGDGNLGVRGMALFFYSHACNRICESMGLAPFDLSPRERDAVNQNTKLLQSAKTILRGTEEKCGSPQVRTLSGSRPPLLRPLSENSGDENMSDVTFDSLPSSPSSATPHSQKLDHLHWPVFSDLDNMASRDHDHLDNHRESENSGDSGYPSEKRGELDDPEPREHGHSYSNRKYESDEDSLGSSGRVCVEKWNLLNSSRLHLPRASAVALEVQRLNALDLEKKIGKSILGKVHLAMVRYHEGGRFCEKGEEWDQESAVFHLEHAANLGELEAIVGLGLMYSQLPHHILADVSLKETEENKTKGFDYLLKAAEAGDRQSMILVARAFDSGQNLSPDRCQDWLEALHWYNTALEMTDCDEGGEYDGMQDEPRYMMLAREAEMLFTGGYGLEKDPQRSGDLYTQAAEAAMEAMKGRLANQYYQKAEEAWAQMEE

[19] = target: Cyclin-dependent kinase 5 (Homo sapiens, UniProt Q00535); assay type: functional;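 note: CDK5 measured as one member of a kinase profiling panel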
Chain of Cyclin-dependent kinase 5 (Q00535 whole entry): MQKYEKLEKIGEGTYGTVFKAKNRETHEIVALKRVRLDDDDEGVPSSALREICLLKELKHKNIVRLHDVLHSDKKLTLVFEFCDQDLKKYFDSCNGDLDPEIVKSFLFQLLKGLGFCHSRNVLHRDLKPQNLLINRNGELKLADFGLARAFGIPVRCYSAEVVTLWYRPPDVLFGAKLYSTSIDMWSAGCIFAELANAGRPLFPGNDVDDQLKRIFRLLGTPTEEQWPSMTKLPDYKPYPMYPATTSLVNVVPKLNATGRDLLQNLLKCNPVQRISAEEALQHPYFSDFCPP

[20] = target: Serine/threonine-protein kinase PLK1 (Homo sapiens, UniProt P53350); assay type: functional;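 note: PLK1 measured as one member of a kinome-wide profiling panel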
[21] = target: Casein kinase I isoform delta (Homo sapiens, UniProt P48730); assay type: functional;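 note: measured as one member (CSNK1D) of a kinome panel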
Chain of Casein kinase I isoform delta (P48730 whole entry, canonical isoform): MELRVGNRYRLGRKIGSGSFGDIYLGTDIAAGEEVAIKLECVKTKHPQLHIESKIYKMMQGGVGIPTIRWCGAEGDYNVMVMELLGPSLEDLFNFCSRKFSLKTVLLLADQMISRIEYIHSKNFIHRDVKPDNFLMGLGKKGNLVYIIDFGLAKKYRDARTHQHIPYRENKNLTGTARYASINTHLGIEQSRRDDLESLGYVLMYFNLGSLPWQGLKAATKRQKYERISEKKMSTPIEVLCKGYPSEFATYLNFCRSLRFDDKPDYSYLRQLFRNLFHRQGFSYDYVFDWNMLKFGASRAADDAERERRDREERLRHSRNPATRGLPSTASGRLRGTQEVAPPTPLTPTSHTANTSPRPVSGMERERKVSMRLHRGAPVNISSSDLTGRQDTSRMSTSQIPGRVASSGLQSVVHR

Insulin receptor = Insulin receptor (Homo sapiens, UniProt P06213); assay type: functional;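 note: insulin receptor kinase tested as one member of a kinome-wide kinase panel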

Structure (SMILES): Oc1ccc(N=Nc2c(O)ccc3ccccc23)cc1
IC50 [1]: 15500 nM (active)

Structure (SMILES): O=C(CCc1ccccc1)NNc1cc(N2CCCCC2)nc(N2CCCCC2)n1
IC50 [2]: > 99000 nM (inactive) | EC50 [3]: 3740 nM (active)

Structure (SMILES): O=C(O)C1Nc2c(O)cc(Cl)c([N+](=O)[O-])c2C2C=CCC12 (stereo not drawn)
IC50 [4]: 22400 nM (active) | IC50 [5]: 36800 nM (active) | EC50 [6]: 216000 nM (inconclusive) | AC50 (ORF 73): 5020 nM (active)

Ki [7]: 5.01 nM (active) | pKi [7]: 8.3 | Ki [8]: 126 nM (active) | Ki [9]: 39.8 nM (active) | pKi [9]: 7.4 | Ki [10]: 5.01 nM (active) | Ki [11]: 31.6 nM (active) | Ki [12]: 39.8 nM (active) | Ki [13]: 100 nM (active) | pKi [13]: 7 | Ki [14]: 251 nM (active) | Ki [15]: 316 nM (active) | Ki [16]: 10 nM (active) | Ki [17]: 3980 nM (active) | Ki [18]: > 3980 nM (inactive) | Ki [19]: 12.6 nM (active) | pKi [19]: 7.9 | Ki [20]: > 7940 nM (inactive) | Ki [21]: 31.6 nM (active) | Ki (Insulin receptor): 3160 nM (active)
Structure (SMILES): Cc1n[nH]c2ccc(-c3cncc(OCC(N)Cc4cccc(Cl)c4)c3)cc12 (stereo not drawn)

Structure (SMILES): Clc1ccc2nc(-c3ccc(Br)s3)cn2c1
EC50 (cells): > 67500 nM (inactive)
